Measurements published in paper PMC4607724, “Discovery and optimisation studies of antimalarial phenotypic hits” (European Journal of Medicinal Chemistry, 2015).
pEC50: −log10 of the molar value. Read-outs that look alike come from different tables or passages of the source.

Tests used:
[1] = In vitro cytotoxicity assay in L-6 cells (Alamar Blue); conditions: rat
Experimental: (§1) VI. Design and Results of the in vitro & in vivo Studies.
A. Drug inhibition of in vitro cultured P. falciparum parasite:[2] […]
B. In vitro cytotoxicity assay: [2] Assays were performed in 96-well microtiter plates, each well containing 100 µl of RPMI 1640 medium supplemented with 1% L-glutamine (200mM) and 10% fetal bovine serum, and 4 x 10^4 L-6 cells (a primary cell line derived from rat skeletal myoblasts).
Serial drug dilutions of seven 3-fold dilution steps covering a range from 90 to 0.123 µg/mL were prepared. After 72 h of incubation the plates were inspected under an inverted microscope to assure growth of the controls and sterile conditions. 10µL of Alamar Blue was then added to each well and the plates incubated for another 2 h. Then the plates were read with a Spectramax Gemini XS microplatefluorometer (Molecular Devices Cooperation, Sunnyvale, CA, USA) using an excitation wave length of 536 nm and an emission wave length of 588 nm. Data were analysed using the microplate reader software Softmax Pro (Molecular Devices Cooperation, Sunnyvale, CA, USA).

P. falciparum K1 = test: In vitro activity against erythrocytic stages of P. falciparum, 3H-hypoxanthine incorporation assay; format: cell-based; conditions: Plasmodium falciparum
Experimental: as §1
A. Drug inhibition of in vitro cultured P. falciparum parasite:[2] All in vitro assays were carried out twice independently in duplicate.In vitro activity against theerythrocytic stages of P. falciparum was determined by using a 3H-hypoxanthine incorporation assay, using the chloroquine and pyrimethamine resistant K1 strain and the standard drugs chloroquine (Sigma C6628) and artemisinin (Arteannuin, Qinghaosu; Sigma 36,159- 3). Compounds were dissolved in DMSO at 10 mg/mL and added to parasite cultures incubated in RPMI 1640 medium without hypoxanthine, supplemented with HEPES (5.94 g/L), NaHCO3 (2.1 g/L), neomycin (100U/mL), AlbumaxR (5 g/L), and washed human red cells A+ at 2.5% haematocrit (0.3% parasitaemia). Serial doubling dilutions of each drug were prepared in 96-well microtiter plates and incubated in a humidified atmosphere at 37 °C; 4% CO 2, 3% O2, 93% N2. After 48 h, 50 µLof 3H-hypoxanthine (= 0.5 µCi) was added to each well of the plate. The plates were incubated for an additional 24 h under the same conditions. The plates were then harvested with a Betaplate cell harvester (Wallac, Zurich, Switzerland), and the red blood cells were transferred onto a glass fiber filter and then washed with distilled water. The dried filters were inserted into a plastic foil with 10 mL of scintillation fluid and were counted in a Betaplate™ liquid scintillation counter (Wallac, Zurich, Switzerland); IC50values were calculated from sigmoidal inhibition curves using Microsoft Excel. […]

P. falciparum = test system: P. falciparum; parameters: method as in PMID 23918316, PMID 23517371; conditions: cited from earlier work
P. berghei ANKA GFP = test: In vivo antimalarial efficacy, P. berghei mouse model (4 days treatment); parameters: species or system Plasmodium berghei; conditions: 10 mg/kg/day × 4, ip, NMRI mice
Experimental: C. In vivo antimalarial efficacy studies (4 days treatment).[2]
In vivo antimalarial activity was assessed basically as previously described. Groups of three female […]
GFP-transfected P. berghei strain ANKA. .Unless otherwise indicated compounds were formulated in 100% DMSO, diluted 10-fold in distilled water and administered intraperitoneally in a volume of 10 mL kg-1 on four consecutive days (4, 24, 48 and 72 h post infection). Parasitemia was determined on day 4 post infection (24 h after last treatment) by FACS analysis. Activity was calculated as the difference between the mean per cent parasitaemia for the control (n=5 mice) and treated groups expressed as a per cent relative to the control group. The survival time in days was also recorded up to 30 days after infection. A compound was considered curative if the animal survived to day 30 after infection with no detectable parasites. In vivo efficacy studies in mice were conducted at the Swiss Tropical and Public Health Institute (Basel) according to the rules and regulations for the protection of animal rights ("Tierschutzverordnung") of the Swiss "BundesamtfürVeterinärwesen". They were approved by the veterinary office of Canton Basel-

[2] = L-6 cells (rat skeletal myoblasts)
[3] = K1 strain (chloroquine and pyrimethamine resistant), means of two independent assays, read-out: P. falc. EC50

SMILES	EC50 at 72 h [1, 2]	pEC50 (P. falciparum K1; [3])	melting point	other results
Cc1cc(/C=C2\S/C(=N\c3ccccc3)N(C3CCCCC3)C2=O)c(C)n1-c1ccc(Br)cc1 [Compound 21, (2Z,5Z)-3-Cyclohexyl-5-((1-(4-bromophenyl)-2,5-dimethyl-1H-pyrrol-3-yl)methylene)-2-(phenylimino)thiazolidin-4-one]	> 170 µM	6.38	243 to 244 °C	
Cc1cc(/C=C2\S/C(=N\c3ccccc3)N(C3CCCCC3)C2=O)c(C)n1-c1ccccc1 [Compound 22]	> 200 µM	6.60	198 to 199 °C	
Cc1cc(/C=C2\S/C(=N\c3ccccc3)N(C3CCCCC3)C2=O)c(C)n1-c1ccc(C(F)(F)F)cc1 [Compound 23]	> 170 µM	6.60	218 to 220 °C	
Cc1cc(/C=C2\S/C(=N\c3ccccc3)N(C3CCCCC3)C2=O)c(C)n1-c1cccc(C(F)(F)F)c1 [Compound 24]	> 170 µM	5.72		
Cc1cc(/C=C2\S/C(=N\c3ccccc3)N(C3CCCCC3)C2=O)c(C)n1-c1ccccc1C(F)(F)F [Compound 25]	> 170 µM	6.11	125 to 127 °C	
Cc1cc(/C=C2\S/C(=N\c3ccccc3)N(C3CCCCC3)C2=O)c(C)n1-c1ccc(N2CCOCC2)cc1 [Compound 26]	> 170 µM	7.05	155 to 156 °C	
Cc1cc(/C=C2\S/C(=N\c3ccccc3)N(C3CCCCC3)C2=O)c(C)n1CCN1CCOCC1 [Compound 27]	71 µM	6.21		
O=C1/C(=C/c2ccn(-c3ccccc3C(F)(F)F)c2)S/C(=N\c2ccccc2)N1C1CCCCC1 [Compound 28]	> 180 µM	5.64	145 to 147 °C	
O=C1/C(=C/c2ccn(Cc3ccccc3)c2)S/C(=N\c2ccccc2)N1C1CCCCC1 [Compound 29]	> 200 µM	5.80	68 to 70 °C	
Cc1cc(/C=C2\S/C(=N\c3ccccc3)N(C3CCCCC3)C2=O)c(C)[nH]1 [Compound 30]	23 µM	5.47		
Cc1cc(/C=C2\S/C(=N\c3ccccc3)N(C3CCCCC3)C2=O)c(C)n1C [Compound 31]	> 230 µM	5.72	184 to 185 °C	
O=C1/C(=C/c2cnn(-c3ccccc3C(F)(F)F)c2)S/C(=N\c2ccccc2)N1C1CCCCC1 [Compound 32]	> 180 µM	5.72		
Cc1cc(/C=C2\S/C(=N\c3ccccc3)N(C)C2=O)c(C)n1-c1ccccc1 [Compound 33]	> 230 µM	5.59	203 to 205 °C	
CC1=CC(/C=C2\S/C(=N\c3ccccc3)N(C)C2=O)=C(C)C1c1ccccc1C(F)(F)F (stereo not shown) [Compound 34]	> 200 µM	5.66		
Cc1cc(/C=C2\S/C(=N\c3ccccc3)N(C)C2=O)c(C)n1-c1ccc(N2CCOCC2)cc1 [Compound 35]	120 µM	5.82	288 °C	
Cc1cc(/C=C2\S/C(=N\c3ccccc3)N(C)C2=O)c(C)n1CCN1CCOCC1 [Compound 36]	> 210 µM	6.00		
CN1C(=O)/C(=C/c2ccn(Cc3ccccc3)c2)S/C1=N\c1ccccc1 [Compound 37]	> 240 µM	5.41	155 to 156 °C	
CN1C(=O)/C(=C/c2cnn(-c3ccccc3C(F)(F)F)c2)S/C1=N\c1ccccc1 [Compound 38]	180 µM	5.34		

SMILES	EC50 at 72 h [1, 2]	pEC50 (P. falciparum K1; [3])	melting point	other results
C/N=C1\S/C(=C\c2cc(C)n(-c3ccc(N4CCOCC4)cc3)c2C)C(=O)N1C [Compound 39]	> 220 µM	< 4.89	333 to 334 °C	
C/N=C1\S/C(=C\c2cc(C)n(CCN3CCOCC3)c2C)C(=O)N1C [Compound 40]	78 µM	5.25		
C/N=C1\S/C(=C\c2ccn(-c3ccccc3C(F)(F)F)c2)C(=O)N1C [Compound 41]	4 µM	5.33	54 to 55 °C	
C/N=C1\S/C(=C\c2ccn(Cc3ccccc3)c2)C(=O)N1C [Compound 42]	> 290 µM	5.02	128 to 130 °C	
C/N=C1\S/C(=C\c2cnn(-c3ccccc3C(F)(F)F)c2)C(=O)N1C [Compound 43]	34 µM	5.44	170 to 172 °C	
Cc1cc(/C=C2\SC(=O)NC2=O)c(C)n1-c1ccccc1C(F)(F)F [Compound 44]	64 µM	5.72	234 to 235 °C	
Cc1cc(/C=C2\SC(=O)N(C)C2=O)c(C)n1-c1ccccc1 [Compound 45]	> 290 µM	5.66	195 to 196 °C	
Cc1cc(/C=C2/SC(=O)NC2=O)c(C)n1-c1ccccc1C(F)(F)F [Compound 46]	43 µM	5.08	205 to 210 °C	
Cc1cc(/C=C2/SC(=N)NC2=O)c(C)n1-c1ccccc1C(F)(F)F [Compound 47]	56 µM	5.24	285 to 290 °C	
Cc1cc(/C=C2/SC(=S)NC2=O)c(C)n1-c1ccccc1C(F)(F)F [Compound 48]	9 µM	4.68	255 to 258 °C	
Cc1cc(/C=C2\NC(=O)NC2=O)c(C)n1-c1ccccc1C(F)(F)F [Compound 49]	84 µM	4.89	265 to 267 °C	
Cc1cc(/C=C2\NC(=O)NC2=O)c(C)n1-c1ccccc1 [Compound 50]	> 320 µM	4.96	267 to 270 °C (dec.)	
Cc1cc(C=C2C(=O)NC(=O)NC2=O)c(C)n1-c1ccccc1C(F)(F)F [Compound 51]			> 300 °C	EC50 at 72 h [1]: 120 µM; pEC50 (P. falciparum K1; K1, read-out: P. falc. EC50): 4.80
Cc1cc(C=C2C(=O)NC(=S)NC2=O)c(C)n1-c1ccccc1C(F)(F)F [Compound 52]			> 300 °C	EC50 at 72 h [1]: 16 µM; pEC50 (P. falciparum K1; K1, read-out: P. falc. EC50): 4.54
CCOC(=O)C1=C(C)N/C(=C/c2cc(C)n(-c3ccccc3C(F)(F)F)c2C)C1=O [TDR32750]				selectivity compared to L6 mammalian cells (P. falciparum; L6 vs P. falciparum): > 2000 fold; pEC50 (P. falciparum; read-out: EC50 against P. falciparum): 8.05
CCN(CC)CCCC(C)Nc1ccnc2cc(Cl)ccc12 (stereo not shown) [chloroquine]				% Reduction parasitaemia P. berghei ANKA GFP (P. berghei ANKA GFP): 99.97%; Survival (P. berghei ANKA GFP; control 7 days): 20 days; EC50 (P. falciparum K1; K1, read-out: EC50, control for P. falciparum K1): 0.1 µg/mL
COc1cc([C@@H]2c3cc4c(cc3[C@H](O)[C@H]3COC(=O)[C@H]23)OCO4)cc(OC)c1OC [podophyllotoxin, reference compound]				EC50 at 72 h [1]: 0.005 µg/mL
